Key:
[1] = molecular target: T1, E. coli QueD (CPH4 synthase) (Escherichia coli, UniProt P65870); experiment: preparative conversion to [7R-D]-CPH4; type: biochemical; conditions: 5 μM QueD, 20 mM PIPES pH 7.4, 10 mM DTT, 18 h, H2O
[2] = molecular target: T1, E. coli QueD (CPH4 synthase); experiment: preparative conversion to [[…]-2H]-CPH4; type: biochemical; conditions: 5 mM sepiapterin, 15 μM QueD, 20 mM PIPES, 99.9% D2O, 20 h

T1 sequence (P65870 whole entry): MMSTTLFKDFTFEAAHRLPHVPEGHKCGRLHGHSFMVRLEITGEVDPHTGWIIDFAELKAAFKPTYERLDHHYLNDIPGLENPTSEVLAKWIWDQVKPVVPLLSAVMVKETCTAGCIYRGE

| SMILES | preparative conversion to [7R-D]-CPH4; FT-ICR MS of product [1] | preparative conversion to [6-2H]-CPH4; FT-ICR MS of product [2] |
| --- | --- | --- |
| Nc1nc2c(c(=O)[nH]1)N=C([C@H](O)[C@H](O)COP(=O)(O)OP(=O)(O)OP(=O)(O)O)CN2 [H2NTP] | The resulting H2NTP was converted to CPH4 in a reaction mixture | – |
| C[C@H](O)C(=O)C1=Nc2c(nc(N)[nH]c2=O)NC1 [sepiapterin] | – | this reaction was used to prepare CPH4 containing deuterium at C-6 |

Source: publication PMC4022186 (Biochemistry, 2012)
